Where a name gives a salt, the structure may show the parent alone. Read-outs that look alike come from different tables or passages of the source.
Tested on: Mycobacterium tuberculosis H37Rv
Assay: Mycobacterium tuberculosis H37Rv Inhibition Assay
Format: cell-based
Conditions: ATCC 25618 / H37Rv, read-out: MIC value
[1] = H37Rv strain (ATCC25618), Middlebrook 7H9+ADC medium, resazurin fluorescence

SMILES	MIC [1] [µg/mL]	MIC [µg/mL]
Cc1cc(=O)n2c3c1ccc(=O)n3[C@H](CN1CCC(NCc3cc4c(cn3)OCCC4)CC1)C2 [Example 1, (1R)-1-({4-[(3,4-dihydro-2H-pyrano[2,3-c]pyridin-6-ylmethyl)amino]-1-piperidinyl}methyl)-6-methyl-1,2-dihydro-4H,9H-imidazo[1,2,3-4]-1,8-naphthyridine-4,9-dione hydrochloride]	< 2	
Cc1cc(=O)n2c3c1ccc(=O)n3[C@H](CN1CCC(NCc3cc4c(cn3)OCCS4)CC1)C2 [Example 2, (1R)-1-({4-[(2,3-dihydro[1,4]oxathiino[2,3-c]pyridin-7-ylmethyl)amino]-1-piperidinyl}methyl)-6-methyl-1,2-dihydro-4H,9H-imidazo[1,2,3-ij]-1,8-naphthyridine-4,9-dione hydrochloride]		< 2
Cc1cc(=O)n2c3c1ccc(=O)n3[C@H](CN1CCC(NCc3cc4c(cn3)OCCO4)CC1)C2 [Example 3, (1R)-1-({4-[(2,3-dihydro[1,4]dioxino[2,3-c]pyridin-7-ylmethyl)amino]-1-piperidinyl}methyl)-6-methyl-1,2-dihydro-4H,9H-imidazo[1,2,3-ij]-1,8-naphthyridine-4,9-dione hydrochloride]		> 2.5
Cc1cc(=O)n2c3c1ccc(=O)n3[C@H](CN1CCC(NCc3cc4c(cn3)OCS4)CC1)C2 [Example 4, (1R)-6-methyl-1-({4-[([1,3]oxathiolo[5,4-c]pyridin-6-ylmethyl)amino]-1-piperidinyl}methyl)-1,2-dihydro-4H,9H-imidazo[1,2,3-4]-1,8-naphthyridine-4,9-dione hydrochloride]	< 2	

Reference: patent US20110275661A1, “TRICYCLIC NITROGEN COMPOUNDS USED AS ANTIBACTERIALS” (Glaxo Group Limited, priority 2008, published 2011)
